According to patent publication US20230227427A1, “IL-17A MODULATORS” (SANOFI, priority 2010, published 2023):

Molecular target: T1, human recombinant IL-17A (Homo sapiens, UniProt Q16552)
T1 construct: purchased R&D Systems 7955-IL/CF
T1 sequence (Q16552 24-155): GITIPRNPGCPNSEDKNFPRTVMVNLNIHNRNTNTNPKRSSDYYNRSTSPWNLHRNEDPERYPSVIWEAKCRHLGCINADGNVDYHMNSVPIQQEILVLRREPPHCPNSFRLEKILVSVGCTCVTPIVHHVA
Assay: IL-17A AlphaLISA assay (block binding of IL-17A to its receptor IL-17RA)
Conditions: compounds pre-incubated with the IL-17A for 30 min (indicated by * in Table A); for IC50: read-out: AlphaLISA pIC50 (converted)
How it was run: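 PBS with 0.05% Tween-20 and 0.1% BSA. IL-17A stock 7.5 nM, IL-17RA/Fc stock 5 nM; compound–cytokine pre-incubation 24 h at RT, or 30 min where marked, then 90 min with receptor. pIC50 from 4-parameter logistic AlphaLISA signal, normalised to DMSO and 6 μM reference inhibitor.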

IC50 [nM] | AlphaLISA pIC50 | SMILES
39.8 |  | CCc1nocc1C(=O)N[C@H](C(=O)Nc1ccc(-c2c(C)noc2C)cn1)C1CCCCCC1 [Example 124, (S)—N-(1-Cycloheptyl-2-((5-(3,5-dimethylisoxazol-4-yl)pyridin-2-yl)amino)-2-oxoethyl)-3-ethylisoxazole-4-carboxamide]
 | 6.8* | Cc1nnn(C)c1-c1ccc(NC(=O)[C@@H](NC(=O)c2ccnn2C)[C@H]2CC[C@H](C)CC2)nc1 [Example 125, N—((S)-2-((5-(1,4-Dimethyl-1H-1,2,3-triazol-5-yl)pyridin-2-yl)amino)-1-((1r,4S)-4-methylcyclohexyl)-2-oxoethyl)-1-methyl-1H-pyrazole-5-carboxamide]
50.1 |  | CCn1nccc1C(=O)N[C@H](C(=O)Nc1ccc(-c2c(C)cnn2C)cn1)[C@H]1CC[C@H](C)CC1 [Example 126, N—((S)-2-((5-(1,4-Dimethyl-1H-pyrazol-5-yl)pyridin-2-yl)amino)-1-((1r,4S)-4-methylcyclohexyl)-2-oxoethyl)-1-ethyl-1H-pyrazole-5-carboxamide]
39.8 |  | CCc1nocc1C(=O)N[C@H](C(=O)Nc1ccc(-c2c(C)cnn2C)cn1)[C@H]1CC[C@H](C)CC1 [Example 127, N—((S)-2-((5-(1,4-Dimethyl-1H-pyrazol-5-yl)pyridin-2-yl)amino)-1-((1r,4S)-4-methylcyclohexyl)-2-oxoethyl)-3-ethylisoxazole-4-carboxamide]
251 |  | Cc1nonc1C(=O)N[C@H](C(=O)Nc1ccc(-c2c(C)noc2C)cn1)C1CCCCCC1 [Example 128, (S)—N-(1-Cycloheptyl-2-((5-(3,5-dimethylisoxazol-4-yl)pyridin-2-yl)amino)-2-oxoethyl)-4-methyl-1,2,5-oxadiazole-3-carboxamide]
316 |  | Cc1noc(C)c1-c1ccc(NC(=O)[C@@H](NC(=O)c2ccnn2C)C2CCCCC2)nc1 [Example 129, (S)—N-(1-Cyclohexyl-2-((5-(3,5-dimethylisoxazol-4-yl)pyridin-2-yl)amino)-2-oxoethyl)-1-methyl-1H-pyrazole-5-carboxamide]
316 |  | Cc1noc(C)c1-c1ccc(NC(=O)[C@@H](NC(=O)c2ccc3n2CCNC3)C2CCCCC2)nc1 [Example 130, (S)—N-(1-Cyclohexyl-2-((5-(3,5-dimethylisoxazol-4-yl)pyridin-2-yl)amino)-2-oxoethyl)-1,2,3,4-tetrahydropyrrolo[1,2-a]pyrazine-6-carboxamide]
63.1 |  | Cc1cnn(C)c1-c1ccc(NC(=O)[C@@H](NC(=O)c2conc2C)[C@H]2CC[C@H](C)CC2)nc1 [Example 131, N—((S)-2-((5-(1,4-Dimethyl-1H-pyrazol-5-yl)pyridin-2-yl)amino)-1-((1r,4S)-4-methylcyclohexyl)-2-oxoethyl)-3-methylisoxazole-4-carboxamide]
79.4 |  | Cc1cnn(C)c1-c1ccc(NC(=O)[C@@H](NC(=O)c2ccnn2C)C2CCCCCC2)nc1 [Example 132, (S)—N-(1-Cycloheptyl-2-((5-(1,4-dimethyl-1H-pyrazol-5-yl)pyridin-2-yl)amino)-2-oxoethyl)-1-methyl-1H-pyrazole-5-carboxamide]
251 |  | Cc1cnn(C)c1-c1ccc(NC(=O)[C@@H](NC(=O)c2cnnn2C)C2CCCCCC2)nc1 [Example 133, (S)—N-(1-Cycloheptyl-2-((5-(1,4-dimethyl-1H-pyrazol-5-yl)pyridin-2-yl)amino)-2-oxoethyl)-1-methyl-1H-1,2,3-triazole-5-carboxamide]
200 |  | Cc1cnn(C)c1-c1ccc(NC(=O)[C@@H](NC(=O)c2nonc2C)C2CCCCCC2)nc1 [Example 134, (S)—N-(1-Cycloheptyl-2-((5-(1,4-dimethyl-1H-pyrazol-5-yl)pyridin-2-yl)amino)-2-oxoethyl)-4-methyl-1,2,5-oxadiazole-3-carboxamide]
398 |  | Cc1noc(C)c1-c1ncc(NC(=O)[C@@H](NC(=O)c2ccnn2C)[C@H]2CC[C@H](C)CC2)cn1 [Example 135, N—((S)-2-((2-(3,5-dimethylisoxazol-4-yl)pyrimidin-5-yl)amino)-1-((1r,4S)-4-methylcyclohexyl)-2-oxoethyl)-1-methyl-1H-pyrazole-5-carboxamide]
63.1 |  | Cc1cnn(C)c1-c1ccc(NC(=O)[C@@H](NC(=O)c2conc2C)C2CCCCCC2)nc1 [Example 136, (S)—N-(1-Cycloheptyl-2-((5-(1,4-dimethyl-1H-pyrazol-5-yl)pyridin-2-yl)amino)-2-oxoethyl)-3-methylisoxazole-4-carboxamide]
200 |  | COCc1nocc1C(=O)N[C@H](C(=O)Nc1ccc(-c2c(C)cnn2C)cn1)C1CCCCCC1 [Example 137, (S)—N-(1-Cycloheptyl-2-((5-(1,4-dimethyl-1H-pyrazol-5-yl)pyridin-2-yl)amino)-2-oxoethyl)-3-(methoxymethyl)isoxazole-4-carboxamide]
251 |  | Cc1noc(C)c1-c1ccc(NC(=O)[C@@H](NC(=O)c2ccnn2C)[C@H]2CC[C@H](C)CC2)cn1 [Example 138, N—((S)-2-((6-(3,5-dimethylisoxazol-4-yl)pyridin-3-yl)amino)-1-((1r,4S)-4-methylcyclohexyl)-2-oxoethyl)-1-methyl-1H-pyrazole-5-carboxamide]
126 |  | CCn1nccc1C(=O)N[C@H](C(=O)Nc1ccc(-c2c(C)c[n+]([O-])cc2C)cn1)[C@H]1CC[C@H](C)CC1 [Example 139, 6-((S)-2-(1-Ethyl-1H-pyrazole-5-carboxamido)-2-((1r,4S)-4-methylcyclohexyl)acetamido)-3′,5′-dimethyl-[3,4′-bipyridine]1′-oxide]
631 |  | CCc1nocc1C(=O)N[C@H](C(=O)Nc1ccc(-c2ncncc2C)cn1)[C@H]1CC[C@H](C)CC1 [Example 140, 3-Ethyl-N—((S)-1-((1r,4S)-4-methylcyclohexyl)-2-((5-(5-methylpyrimidin-4-yl)pyridin-2-yl)amino)-2-oxoethyl)isoxazole-4-carboxamide]
158 |  | CCn1nncc1C(=O)N[C@H](C(=O)Nc1ccc(-c2c(C)cnn2C)cn1)C1CCCCCC1 [Example 141, (S)—N-(1-Cycloheptyl-2-((5-(1,4-dimethyl-1H-pyrazol-5-yl)pyridin-2-yl)amino)-2-oxoethyl)-1-ethyl-1H-1,2,3-triazole-5-carboxamide]
398 |  | COCc1noc(C)c1-c1ccc(NC(=O)[C@@H](NC(=O)c2ccnn2C)[C@H]2CC[C@H](C)CC2)nc1 [Example 142, N—((S)-2-((5-(3-(methoxymethyl)-5-methylisoxazol-4-yl)pyridin-2-yl)amino)-1-((1r,4S)-4-methylcyclohexyl)-2-oxoethyl)-1-methyl-1H-pyrazole-5-carboxamide]
794 |  | CCc1nocc1C(=O)N[C@H](C(=O)Nc1ccc(-c2c(C)cnn2C)cn1)C1CCC(F)(F)CC1 [Example 144, (S)—N-(1-(4,4-difluorocyclohexyl)-2-((5-(1,4-dimethyl-1H-pyrazol-5-yl)pyridin-2-yl)amino)-2-oxoethyl)-3-ethylisoxazole-4-carboxamide]
398 |  | Cc1cnn(C)c1-c1ccc(NC(=O)[C@@H](NC(=O)c2ccnn2C)[C@H]2CC[C@H](C)CC2)cn1 [Example 145, N—((S)-2-((6-(1,4-dimethyl-1H-pyrazol-5-yl)pyridin-3-yl)amino)-1-((1r,4S)-4-methylcyclohexyl)-2-oxoethyl)-1-methyl-1H-pyrazole-5-carboxamide]
501 |  | Cc1cc(NC(=O)[C@@H](NC(=O)c2ccnn2C)[C@H]2CC[C@H](C)CC2)ncc1-c1ccnn1C [Example 146, 1-methyl-N—((S)-2-((4-methyl-5-(1-methyl-1H-pyrazol-5-yl)pyridin-2-yl)amino)-1-((1r,4S)-4-methylcyclohexyl)-2-oxoethyl)-1H-pyrazole-5-carboxamide]
398 |  | CCn1nccc1C(=O)N[C@H](C(=O)Nc1cnc(-c2c(C)cnn2C)nc1)[C@H]1CC[C@H](C)CC1 [Example 147, N—((S)-2-((2-(1,4-dimethyl-1H-pyrazol-5-yl)pyrimidin-5-yl)amino)-1-((1r,4S)-4-methylcyclohexyl)-2-oxoethyl)-1-ethyl-1H-pyrazole-5-carboxamide]
200 |  | Cc1nnn(C)c1-c1ccc(NC(=O)[C@@H](NC(=O)c2ccnn2C)C2CCCCCC2)nc1 [Example 148, (S)—N-(1-cycloheptyl-2-((5-(1,4-dimethyl-1H-1,2,3-triazol-5-yl)pyridin-2-yl)amino)-2-oxoethyl)-1-methyl-1H-pyrazole-5-carboxamide]
79.4 |  | CCn1nccc1C(=O)N[C@H](C(=O)Nc1ccc(-c2c(C)nnn2C)cn1)C1CCCCCC1 [Example 149, (S)—N-(1-cycloheptyl-2-((5-(1,4-dimethyl-1H-1,2,3-triazol-5-yl)pyridin-2-yl)amino)-2-oxoethyl)-1-ethyl-1H-pyrazole-5-carboxamide]
398 |  | COCc1onc(C)c1-c1ccc(NC(=O)[C@@H](NC(=O)c2ccnn2C)C2CCCCCC2)nc1 [Example 150, (S)—N-(1-cycloheptyl-2-((5-(5-(methoxymethyl)-3-methylisoxazol-4-yl)pyridin-2-yl)amino)-2-oxoethyl)-1-methyl-1H-pyrazole-5-carboxamide]
794 |  | Cc1nccc(-c2ccc(NC(=O)[C@@H](NC(=O)c3ccnn3C)[C@H]3CC[C@H](C)CC3)nc2)c1C [Example 152, N—((S)-2-((2′,3′-dimethyl-[3,4′-bipyridin]-6-yl)amino)-1-((1r,4S)-4-methylcyclohexyl)-2-oxoethyl)-1-methyl-1H-pyrazole-5-carboxamide]
